Data: US20170291905A1, “ARGININE […] INHIBITORS AND USES THEREOF” (Epizyme, Inc., priority 2014, published 2017)
Structures can show the parent of a compound that is named as a salt.

target: T1, PRMT1 (Homo sapiens, UniProt Q99873); assay: RKO methylation assay, In Cell Western (ICW) for mono-methyl arginine and DNA content; type: cell-based; conditions: RKO cells, 72 hours, mono-methyl arginine signal normalised to DRAQ5, percent activation
T1 construct: host or cells: RKO cells
Description: RKO Methylation Assay RKO adherent cells were purchased from ATCC (American Type Culture Collection), Manassas, Va., USA. DMEM/Glutamax medium, penicillin-streptomycin, heat inactivated fetal bovine serum, 0.05% trypsin and D-PBS were purchased from Life Technologies, Grand Island, N.Y., USA. Odyssey blocking buffer, 800CW goat anti-rabbit IgG (H+L) antibody, and Licor Odyssey infrared scanner were purchased from Licor Biosciences, Lincoln, Nebr., USA. Mono-methyl arginine antibody was purchased from Cell Signaling Technology, Danvers, Mass., USA. Methanol was purchased from VWR, Franklin, Mass., USA. 10% Tween 20 was purchased from KPL, Inc., Gaithersburg, Md., USA. DRAQ5 was purchased from Biostatus Limited, Leicestershire, UK. RKO adherent cells were maintained in growth medium (DMEM/Glutamax medium supplemented with 10% v/v heat inactivated fetal bovine serum and 100 units/mL penicillin-streptomycin) and cultured at 37° C. under 5% CO2. Cell Treatment, in Cell Western (ICW) for Detection of Mono-Methyl Arginine and DNA Content. RKO cells were seeded in assay medium at a concentration of 20,000 cells per mL to a poly-D-lysine coated 384 well culture plate (BD Biosciences 356697) with 50 μL per well. Compound (100 nL) from a 96-well source plate was added directly to 384 well cell plate. Plates were incubated at 37° C., 5% CO2 for 72 hours. After three days of incubation, plates were brought to room temperature outside of the incubator for ten minutes and blotted on paper towels to remove cell media. 50 μL of ice cold 100% methanol was added directly to each well and incubated for 30 min at room temperature. After 30 min, plates were transferred to a Biotek EL406 plate washer and washed 2 times with 100 μL per well of wash buffer (1×PBS). Next 60 μL per well of Odyssey blocking buffer (Odyssey Buffer with 0.1% Tween 20 (v/v)) were added to each plate and incubated 1 hour at room temperature. Blocking buffer was removed and 20 μL per well of primary antibody was added (mono-methyl arginine diluted 1:200 in Odyssey buffer with 0.1% Tween 20 (v/v)) and plates were incubated overnight (16 hours) at 4° C. Plates were washed 5 times with 100 μL per well of wash buffer. Next 20 μL per well of secondary antibody was added (1:200 800CW goat anti-rabbit IgG (H+L) antibody, 1:1000 DRAQ5 (Biostatus limited) in Odyssey buffer with 0.1% Tween 20 (v/v)) and incubated for 1 hour at room temperature. The plates were washed 5 times with 100 μL per well wash buffer then 2 times with 100 μL per well of water. Plates were allowed to dry at room temperature then imaged on the Licor Odyssey machine which measures integrated intensity at 700 nm and 800 nm wavelengths. Both 700 and 800 channels were scanned. […] Each plate included fourteen control wells of DMSO only treatment (minimum activation) as well as fourteen control wells for maximum activation treated with 20 μM of a reference compound. The average of the ratio values for each control type was calculated and used to determine the percent activation for each test well in the plate. Reference compound was serially diluted three-fold in DMSO for a total of nine test concentrations, beginning at 20 μM. Percent activation was determined and EC30 curves were generated using triplicate wells per concentration of compound.

T1 sequence (Q99873 whole entry): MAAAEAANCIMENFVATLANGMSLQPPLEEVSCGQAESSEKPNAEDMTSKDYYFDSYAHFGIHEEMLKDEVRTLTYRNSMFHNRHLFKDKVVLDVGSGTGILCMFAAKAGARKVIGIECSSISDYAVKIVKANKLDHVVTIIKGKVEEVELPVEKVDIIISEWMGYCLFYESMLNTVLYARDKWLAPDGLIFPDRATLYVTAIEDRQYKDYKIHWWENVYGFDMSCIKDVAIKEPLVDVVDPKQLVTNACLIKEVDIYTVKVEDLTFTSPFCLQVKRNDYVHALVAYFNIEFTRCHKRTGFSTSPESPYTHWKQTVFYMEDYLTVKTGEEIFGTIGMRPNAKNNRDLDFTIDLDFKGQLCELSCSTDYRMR

CC[C@]12CC[C@](CC)(C[C@@H](c3n[nH]cc3CN(C)CCNC)C1)O2 [compound 38, N1-((3-((1R,3s,5S)-1,5-diethyl-8-oxabicyclo[3.2.1]octan-3-yl)-1H-pyrazol-4-yl)methyl)-N1,N2-dimethylethane-1,2-diamine] was tested, and the “PRMT1 RGG ICW EC30” value was greater than 5000 nM.
With CCC1CC(c2n[nH]cc2CN(C)CCNC)CC(C(=O)NCCOC)C1(C)C (stereo not drawn) [compound 21, 3-ethyl-N-(2-methoxyethyl)-2,2-dimethyl-5-[4-([methyl[2-(methylamino)ethyl]amino]methyl)-1H-pyrazol-3-yl]cyclohexane-1-carboxamide dihydrochloride] the “PRMT1 RGG ICW EC30” value was greater than 5000 nM.
For CNCCN(C)Cc1cn(C)nc1C1CCC(C)(C)[C@@H](C(=O)NCC(C)C)C1 (stereo partly drawn) [compound 25], the “PRMT1 RGG ICW EC30” value was greater than 5000 nM.

Going from CCC1(CC)C[C@]2(CC[C@H](c3n[nH]cc3CN(C)CCNC)CC2)OC1=O [compound 33, (5s,8s)-3,3-diethyl-8-(4-((methyl(2-(methylamino)ethyl)amino)methyl)-1H-pyrazol-3-yl)-1-oxaspiro[4.5]decan-2-one] to CCC1(CC)C[C@]2(CC[C@@H](c3n[nH]cc3CN(C)CCNC)CC2)OC1=O [compound 34, (5r,8r)-3,3-diethyl-8-(4-((methyl(2-(methylamino)ethyl)amino)methyl)-1H-pyrazol-3-yl)-1-oxaspiro[4.5]decan-2-one], the “PRMT1 RGG ICW EC30” value rises from 40.81 nM to 65.46 nM (1.6-fold).

Compared with CNCCN(C)Cc1n[nH]cc1[C@H]1CC[C@@]2(CC1)CC(C)(C)CO2 [compound 115], CNCCN(C)Cc1nocc1[C@H]1CC[C@@]2(CC1)CC(C)(C)CO2 [compound 117] is 42-fold higher in “PRMT1 RGG ICW EC30” value: 20.34 nM for the first, 863.2 nM for the second.

Compared with CCOCC1(COCC)CCC(c2n[nH]cc2CN(C)CCN(C)C)CC1 [compound 121], CCOCC1(COCC)CCC(c2nn(C)cc2CN(C)CCN)CC1 [compound 124] is 2.1-fold lower in “PRMT1 RGG ICW EC30” value: 117.5 nM for the first, 55.87 nM for the second.

First: CC[C@]12CC[C@](CC)(C[C@H](c3n[nH]cc3CN(C)CCNC)C1)O2 [compound 37, N1-((3-((1R,3r,5S)-1,5-diethyl-8-oxabicyclo[3.2.1]octan-3-yl)-1H-pyrazol-4-yl)methyl)-N1,N2-dimethylethane-1,2-diamine]
Second: CNCCN(C)Cc1c[nH]nc1[C@H]1CC[C@]2(CCCOC2)CC1 [compound 4, N1-((3-((6s,9s)-2-oxaspiro[5.5]undecan-9-yl)-1H-pyrazol-4-yl)methyl)-N1,N2-dimethylethane-1,2-diamine]
The “PRMT1 RGG ICW EC30” value of the first is 13-fold higher: 245.5 nM for the first, 18.34 nM for the second.

CNCCN(C)Cc1ccnn1[C@H]1CC[C@]2(CC1)CC(C)(C)CO2 [compound 50, N1-((1-((5r,8r)-3,3-dimethyl-1-oxaspiro[4.5]decan-8-yl)-1H-pyrazol-5-yl)methyl)-N1,N2-dimethylethane-1,2-diamine] and CNCCN(C)Cc1cncn1[C@H]1CC[C@@]2(CC1)CC(C)(C)CO2 [compound 76] are within 1.5-fold of each other in “PRMT1 RGG ICW EC30” value: 321.2 nM for the first, 389.4 nM for the second.

CNCCN(C)Cc1c[nH]nc1C1CCC2(CCC(OC)CC2)CC1 (stereo not drawn) [compound 9, N1-((3-(9-methoxyspiro[5.5]undecan-3-yl)-1H-pyrazol-4-yl)methyl)-N1,N2-dimethylethane-1,2-diamine] and CNCCN(C)Cc1c[nH]nc1[C@H]1CC[C@@]2(CCCOC2)CC1 [compound 5, N1-((3-((6r,9r)-2-oxaspiro[5.5]undecan-9-yl)-1H-pyrazol-4-yl)methyl)-N1,N2-dimethylethane-1,2-diamine] are within 1.5-fold of each other in “PRMT1 RGG ICW EC30” value: 12.45 nM for the first, 14.65 nM for the second.

CN(CCN)Cc1nn(C)cc1[C@H]1CC[C@]2(CC1)CC(C)(C)CO2 [compound 102] and CNCCN(C)Cc1nn(C)nc1C1CCC2(CC1)CC(C)(C)CO2 (stereo not drawn) [compound 86] are within 1.5-fold of each other in “PRMT1 RGG ICW EC30” value: 446.7 nM for the first, 443.6 nM for the second.

Going from CNCCN(C)Cc1c(C)[nH]nc1[C@H]1CC[C@]2(CC1)CC(C)(C)CO2 [compound 58] to CNCCN(C)Cc1c(C)[nH]nc1[C@H]1CC[C@@]2(CC1)CC(C)(C)CO2 [compound 57], the “PRMT1 RGG ICW EC30” value falls from 83.34 nM to 40.32 nM (2.1-fold).

First: CNCCN(C)Cc1nn[nH]c1[C@H]1CC[C@]2(CC1)CC(C)(C)CO2 [compound 89]
Second: CNCCN(C)Cc1scnc1[C@H]1CC[C@]2(CC1)CC(C)(C)CO2 [compound 84]
The “PRMT1 RGG ICW EC30” value of the first is 14-fold higher: 760.4 nM for the first, 54.69 nM for the second.

Compared with CNCCN(C)Cc1c[nH]nc1C1=CCC(COCC(F)(F)F)CC1 (stereo not drawn) [compound 16, N1,N2-dimethyl-N1-((3-(4-((2,2,2-trifluoroethoxy)methyl)cyclohex-1-en-1-yl)-1H-pyrazol-4-yl)methyl)ethane-1,2-diamine], CCOCC1(COCC)CC=C(c2n[nH]cc2CN(C)CCNC)CC1 [compound 60] is 19-fold lower in “PRMT1 RGG ICW EC30” value: 839.3 nM for the first, 44.67 nM for the second.

Going from CNCCN(C)Cc1c[nH]nc1C1CCC(COCC(C)C)(COCC(C)C)CC1 [compound 6] to CNCCN(C)Cc1c[nH]nc1[C@H]1CC[C@]2(CCCCO2)CC1 [compound 127, methyl([2-[methyl([3-[(6s,9r)-1-oxaspiro[5.5]undecan-9-yl]-1H-pyrazol-4-yl]methyl)amino]ethyl])amine bistrifluoroacetic acid salt], the “PRMT1 RGG ICW EC30” value falls from 949.3 nM to 8.48 nM (110-fold).

Going from CNCCN(C)Cc1c[nH]nc1C1CCC(OCCCOC)C2(CCCC2)C1 (mixture of isomers) [compound 19, N1-((3-(10-(3-methoxypropoxy)spiro[4.5]decan-7-yl)-1H-pyrazol-4-yl)methyl)-N1,N2-dimethylethane-1,2-diamine dihydrochloride] to CNCCN(C)Cc1sc(C)nc1[C@H]1CC[C@@]2(CC1)CC(C)(C)CO2 [compound 78], the “PRMT1 RGG ICW EC30” value falls from 440.3 nM to 29.59 nM (15-fold).
